PMC3272803, “Infection by CXCR4-Tropic Human Immunodeficiency Virus Type 1 Is Inhibited by the Cationic Cell-Penetrating Peptide Derived from HIV-1 Tat” (International Journal of Peptides, 2012)
In brackets after ≈: the same amount, converted by molar mass. Read-outs that look alike come from different tables or passages of the source. No end group written: not given here.

Legend:
HIV-1 strain IIIB = type: cell-based, human immunodeficiency virus type 1; conditions: for EC50: 2 h exposure
Method: Peptide effectiveness was determined in an HIV-1 infection inhibition assay using P4-R5 MAGI indicator cells. […] The cells were then infected with HIV-1 strain IIIB (Advanced Biotechnologies, Inc., Columbia, MD; 10^7.8 TCID50/mL) at multiplicities of infection (MOI) of 0.6, 0.05, or 0.03 in the presence or absence of peptide or dextran sulfate (DS) (Sigma, St. Louis, MO). Following a 2 h incubation at 37°C, the cells were washed with PBS, provided with 200 μL of new media, and incubated for an additional 46 h. Levels of infection were measured using the Galacto-Star-β-Galactosidase Reporter Gene Assay System for Mammalian Cells (Applied Biosystems, Carlsbad, CA) as described by the manufacturer. Chemiluminescence was measured using a Glomax Luminometer plate reader (Promega, Madison, WI).

P4-R5 MAGI cells = conditions: 2 h exposure at concentrations below 1 mg/mL; MTT immediately after exposure or 24 h or 48 h after exposure; two independent assays in quadruplicate
Method: P4-R5 MAGI cells were plated at a concentration of 1.5 × 10^4 cells/well in a flat-bottom 96-well plate. The cells were then exposed to the indicated half log concentrations of peptide and incubated at 37°C for 2 h. Following exposure, the cells were washed with PBS and then assayed for cell viability immediately or at 24 h or 48 h after exposure. Viability was measured using a 3-(4,5-dimethylthiazol-2-yl)-2,5-diphenyltetrazolium bromide (MTT) assay as previously described.
Mean values and standard deviations were calculated from two independent assays in which each concentration was examined in quadruplicate.

[1] = exposure durations as long as 48 h, not conjugated to payload; cited from earlier work
HIV-1 = conditions: preliminary studies, data not shown

N=C(N)NCCC[C@H](NC(=O)[C@H](CCCNC(=N)N)NC(=O)[C@H](CCCNC(=N)N)NC(=O)[C@H](CCCNC(=N)N)NC(=O)[C@H](CCCNC(=N)N)NC(=O)[C@H](CCCNC(=N)N)NC(=O)[C@H](CCCNC(=N)N)NC(=O)[C@H](CCCNC(=N)N)NC(=O)[C@H](CCCNC(=N)N)NC(=O)[C@@H](N)CCCNC(=N)N)C(=O)O [R-10, decaarginine]
EC50 (concentration that resulted in 50% reduction in infection relative to mock-treated, HIV-1-infected cells) (HIV-1 strain IIIB; strain IIIB, 2 h): 14 µg/mL (≈ 8.86 µM)

N=C(N)NCCC[C@H](NC(=O)[C@H](CCCNC(=N)N)NC(=O)[C@H](CCCNC(=N)N)NC(=O)[C@H](CCC(N)=O)NC(=O)[C@H](CCCNC(=N)N)NC(=O)[C@H](CCCNC(=N)N)NC(=O)[C@H](CCCCN)NC(=O)[C@H](CCCCN)NC(=O)[C@H](CCCNC(=N)N)NC(=O)CN)C(=O)O [Tat peptide]
EC50 (HIV-1 strain IIIB; HIV-1 IIIB, 0.05 MOI (8.8 x 10^3 infectious virions/mL), P4-R5 MAGI cells): 140 µg/mL
EC50 (HIV-1 strain IIIB; HIV-1 IIIB, 0.6 MOI, P4-R5 MAGI cells, same value as 0.094 mg/mL in molar units): 50 µM
effect on P4-R5 MAGI cell viability (P4-R5 MAGI cells): no effect
concentration up to which peptide alone had no effect on cell viability [1]: up to 100 μM

RRKKRRRRRR [TPvar3]
EC50 (concentration that resulted in 50% reduction in infection relative to mock-treated, HIV-1-infected cells) (HIV-1 strain IIIB; strain IIIB, 2 h): 25 µg/mL

dextran sulfate [reference compound]
EC50 (concentration that resulted in 50% reduction in infection relative to mock-treated, HIV-1-infected cells) (HIV-1 strain IIIB; HIV-1 IIIB, 0.6 MOI, P4-R5 MAGI cells, 2 h exposure with virus, wash, further 46 h, beta-galactosidase chemiluminescence, two independent assays in quadruplicate): 0.7 µg/mL

nona-arginine
anti-HIV-1 activity (HIV-1): anti-HIV-1 activity
